The text below walks through data of ChEMBL document CHEMBL1154856, “Leuconicines A-G and (-)-eburnamaline, biologically active strychnan and eburnan alkaloids from Leuconotis” (J Nat Prod, 2009).

A value given as a limit tells only on which side of the number the result lay.

The test system of the first assay is KB. The experiment in a line: Cytotoxicity against vincristine-sensitive human KB cells. The class given is functional, cell-based.
A word on the IC50: it is the point on the concentration scale where inhibition reaches its midpoint. `CC[C@@]12CCCN3CCc4c(n(c5ccccc45)[C@H](O)[C@@H]1O)[C@H]32`: the half-maximal inhibitory concentration (IC50) is more than 25 µg/mL.

For `CC[C@@H]1CN2CC[C@]34c5ccccc5-n5c3c(cc(C(N)=O)c5=O)[C@H]1C[C@H]24` [LEUCONICINE A], the half-maximal inhibitory concentration (IC50) is more than 25 µg/mL.

For `CC[C@@H]1CN2CC[C@]34c5ccccc5-n5c3c(cc(C(=O)OC)c5=O)[C@H]1C[C@H]24` [LEUCONICINE B], the IC50 is more than 25 µg/mL.

As to `CCC1=CN2CC[C@]34c5ccccc5-n5c3c(cc(C(N)=O)c5=O)[C@H]1C[C@H]24` [LEUCONICINE C], the IC50 was more than 25 µg/mL.

As for `CCC1=CN2CC[C@]34c5ccccc5-n5c3c(cc(C(=O)O)c5=O)[C@H]1C[C@H]24` [LEUCONICINE E], the IC50 is more than 25 µg/mL.

Molecule `CC[C@@H]1C[N+]2([O-])CC[C@]34c5ccccc5-n5c3c(cc(C(N)=O)c5=O)[C@H]1C[C@@H]42` (some centres undefined) [LEUCONICINE F] returned an IC50 of more than 25 µg/mL.

Consider `CC[C@@H]1C[N+]2([O-])CC[C@]34c5ccccc5-n5c3c(cc(C(=O)OC)c5=O)[C@H]1C[C@@H]42` (some centres undefined) [LEUCONICINE G], for which the IC50 was more than 25 µg/mL.

On to `CCC1=CN2CC[C@]34c5ccccc5-n5c3c(cc(C(=O)OC)c5=O)[C@H]1C[C@H]24` [MELODININE B], for which the 50% inhibitory concentration (IC50) was more than 25 µg/mL.

Tested on in another assay: not listed separately
The experiment in a line: Cytotoxicity against vincristine-resistant human KB/VJ300 cells. The class given is functional, cell-based.
Turning to `CC[C@@]12CCCN3CCc4c(n(c5ccccc45)[C@H](O)[C@@H]1O)[C@H]32`, the half-maximal inhibitory concentration (IC50) was more than 25 µg/mL.

Take `CC[C@@H]1CN2CC[C@]34c5ccccc5-n5c3c(cc(C(N)=O)c5=O)[C@H]1C[C@H]24` [LEUCONICINE A]: the IC50 was more than 25 µg/mL.

Molecule `CC[C@@H]1CN2CC[C@]34c5ccccc5-n5c3c(cc(C(=O)OC)c5=O)[C@H]1C[C@H]24` [LEUCONICINE B] had an IC50 of more than 25 µg/mL.

As for `CCC1=CN2CC[C@]34c5ccccc5-n5c3c(cc(C(N)=O)c5=O)[C@H]1C[C@H]24` [LEUCONICINE C], the IC50 is more than 25 µg/mL.

On to `CCC1=CN2CC[C@]34c5ccccc5-n5c3c(cc(C(=O)O)c5=O)[C@H]1C[C@H]24` [LEUCONICINE E], for which the 50% inhibitory concentration (IC50) is more than 25 µg/mL.

As to `CC[C@@H]1C[N+]2([O-])CC[C@]34c5ccccc5-n5c3c(cc(C(N)=O)c5=O)[C@H]1C[C@@H]42` (some centres undefined) [LEUCONICINE F], the half-inhibitory concentration (IC50) was more than 25 µg/mL.

`CC[C@@H]1C[N+]2([O-])CC[C@]34c5ccccc5-n5c3c(cc(C(=O)OC)c5=O)[C@H]1C[C@@H]42` (some centres undefined) [LEUCONICINE G]: the IC50 is more than 25 µg/mL.

As for `CCC1=CN2CC[C@]34c5ccccc5-n5c3c(cc(C(=O)OC)c5=O)[C@H]1C[C@H]24` [MELODININE B], the IC50 is more than 25 µg/mL.

Tested on in the next assay: not listed separately
The experiment in a line: Cytotoxicity against vincristine-resistant human KB/VJ300 cells in presence of 0.121 uM vincristine. The class given is functional, cell-based.
`CC[C@@H]1CN2CC[C@]34c5ccccc5-n5c3c(cc(C(N)=O)c5=O)[C@H]1C[C@H]24` [LEUCONICINE A]: the IC50 was 7.12 µM.

With `CC[C@@H]1CN2CC[C@]34c5ccccc5-n5c3c(cc(C(=O)OC)c5=O)[C@H]1C[C@H]24` [LEUCONICINE B], the IC50 was 5.27 µM.

As for `CCC1=CN2CC[C@]34c5ccccc5-n5c3c(cc(C(N)=O)c5=O)[C@H]1C[C@H]24` [LEUCONICINE C], the concentration for half-maximal inhibition (IC50) was found to be 10.8 µM.

Turning to `CCC1=CN2CC[C@]34c5ccccc5-n5c3c(cc(C(=O)O)c5=O)[C@H]1C[C@H]24` [LEUCONICINE E], the IC50 came out at 37.6 µM.

For `CCC1=CN2CC[C@]34c5ccccc5-n5c3c(cc(C(=O)OC)c5=O)[C@H]1C[C@H]24` [MELODININE B], the IC50 turned out to be 12.3 µM.

Tested on in another assay: not listed separately
Description: Cytotoxicity against vincristine-resistant human KB/VJ300 cells in presence of 0.1 ug/ml vincristine. The class given is functional, cell-based.
For the molecule `CC[C@@]12CCCN3CCc4c(n(c5ccccc45)[C@H](O)[C@@H]1O)[C@H]32`, the IC50 was more than 25 µg/mL.

`CC[C@@H]1CN2CC[C@]34c5ccccc5-n5c3c(cc(C(N)=O)c5=O)[C@H]1C[C@H]24` [LEUCONICINE A]: the IC50 is 2.57 µg/mL.

On to `CC[C@@H]1CN2CC[C@]34c5ccccc5-n5c3c(cc(C(=O)OC)c5=O)[C@H]1C[C@H]24` [LEUCONICINE B], for which the IC50 was found to be 1.98 µg/mL.

As to `CCC1=CN2CC[C@]34c5ccccc5-n5c3c(cc(C(N)=O)c5=O)[C@H]1C[C@H]24` [LEUCONICINE C], the IC50 amounted to 3.86 µg/mL.

Regarding `CCC1=CN2CC[C@]34c5ccccc5-n5c3c(cc(C(=O)O)c5=O)[C@H]1C[C@H]24` [LEUCONICINE E], the IC50 is 13.5 µg/mL.

As for `CC[C@@H]1C[N+]2([O-])CC[C@]34c5ccccc5-n5c3c(cc(C(N)=O)c5=O)[C@H]1C[C@@H]42` (some centres undefined) [LEUCONICINE F], the IC50 was more than 25 µg/mL.

As for `CC[C@@H]1C[N+]2([O-])CC[C@]34c5ccccc5-n5c3c(cc(C(=O)OC)c5=O)[C@H]1C[C@@H]42` (some centres undefined) [LEUCONICINE G], the IC50 was more than 25 µg/mL.

Take `CCC1=CN2CC[C@]34c5ccccc5-n5c3c(cc(C(=O)OC)c5=O)[C@H]1C[C@H]24` [MELODININE B]: the IC50 came out at 4.62 µg/mL.
